Source: US20100311107A1, “Ultra-High Throughput Screening of Natural Products” (priority 2004, published 2010)
Read-outs that look alike come from different tables or passages of the source.

Columns and labels:
Assay type in all cases: cell-based, Escherichia coli
screening strain DR1212 = assay: macrodroplet screening assay for DNA-interacting agents; conditions: DNA excluded from the bioassay medium
Experimental: (§1) After the period of incubation as described above, macrodroplets can be screened for biological activities by a unique technique termed macrodroplet screening assay. The biological activities of compounds secreted by the encapsulated microorganisms and contained within the macrodroplet beads can be detected by, for example, cell growth inhibition. In general, screening strains should first be cultured to a certain cell density (proper OD reads as described in section 5.3.3.) in liquid medium and then plated in semi-solid medium matrix (0.8%), which overlays the macrodroplet beads (see FIG. 1, item 140. Item 145 of FIG. 1 represents the top layer of semi-solid medium matrix containing a selected screening strain). After being incubated overnight, the screening strain can grow throughout the matrix, except in areas where macrodroplet beads release metabolites, which prevent the growth of the screening strain. The inhibition of cell growth may result in zones of inhibition around these beads (see item 155, FIG. 1), which usually can be detected visually.
Screening for DNA-interacting agents was carried out using the standard macrodroplet screening method previously described, with the exception that DNA was excluded from the bioassay medium. Following overnight incubation at 35° C., macrodroplet beads from zones of inhibition are recovered and processed via the normal route as discussed in section 5.2.2.4.
Alternatively, a second round screening was performed to increase specificity of the screening. Microorganisms obtained as the outcome of the screening described above were subject to a second round of screening using screening strains having a lacZ reporter gene controlled by promoters responsive to DNA damage, such as CM191 and CM242 (see section 5.3.1.d. The details of screening procedure are discussed in both section 5.2.3. Microorganisms from macrodroplets producing zones of activity were purified using methods previously described and fermented in larger volumes. Their species specificities were determined by sequencing their 16S rRNA genes and the active compounds were purified and further characterized. Several active compounds were selected by DR1212, such as chrysomycin, streptonigrin, daunomycin and chromomycin, which are all known DNA damaging agents.

[1] = system: E. coli screening strain DR1212; design: unit not given here; conditions: Table 11, MHB medium
Experimental: (§2) The level of drug-resistance of screening strain DR1212 was analyzed by standard MIC assay in MHB liquid medium and the result was summarized in Table 11. Similar to screening strains, DR1234 and CM166, DR1212 is also resistant to drugs whose resistant genes have been introduced.

[2] = system: E. coli screening strain DR1234; design: unit not given here; conditions: Table 7, MHB medium
Experimental: (§3) The screening strain, DR1234, was established after all desired drug-resistant genes listed in Table 5 had been delivered into the parent E. coli strain, MG1655, by methods described above. Its level of drug resistance was analyzed by the standard minimum inhibitory concentration (MIC) assay in MHB liquid medium (Chantot, et al., 1986, “Antibacterial activity of roxithromycin: a laboratory evaluation,” J. Antibiot, 39(5):660-8) and the result was summarized in Table 7.

[3] = system: E. coli screening strain CM435; design: Minimal inhibitory concentrations (MIC90) CM435: unit not given here; conditions: for Minimal inhibitory concentrations (MIC90) CM435: Table 13, MHB medium
[4] = system: E. coli screening strain CM400; design: unit not given here; conditions: Table 13, MHB medium
Experimental: (§4) The level of drug resistance of screening strains CM400 and CM435 was evaluated by standard MIC assay in MHB liquid medium and the results are summarized in Table 13. According to the MIC results, CM435 is hypersensitive to Bleomycin, Daunorucibin, Coumermycin A1 and Erythromycin. Screening strain CM435 and others, which are hypersensitive to certain types of antimicrobial agents, are advantageous in detecting bioactive compounds with low concentration in the screening system.

[5] = system: E. coli screening strain CM242; design: unit not given here; conditions: second Table 12, MHB medium
Experimental: (§5) The level of drug resistance of these screening strains (both intermediates and finals) was evaluated by standard MIC assay in MHB liquid medium and the result of Strain CM242 is summarized in Table 12.

[6] = system: lacZ reporter gene of the screening strains (CM191, CM242); assay: S-Gal staining assay on solid medium; conditions: screening strains on solid medium, drug-impregnated disks, PETG to suppress background
Description: The screening strains' responses to DNA damaging agents were further confirmed by S-Gal staining assay. When mitomycin C and streptonigrin (both were well-known DNA damaging drugs) and S-Gal, the indicator, were applied to the screening strains growing on solid medium, blue-colored rings were visible around colonies in drug-impregnated disks. […] Actinomycin D was an exception. CM242 was not sensitive to this drug, although it disrupts DNA structure. PETG (2-phenyethyl B-D-thiogalactoside, Sigma, St Louis Mo.), was used in this experiment to suppress unspecific background activity.

E. coli MG1655 = system: E. coli MG1655; design: unit not given here
Experimental: as §3
(§6) The level of drug resistance of CM166 was estimated by MIC assay carried out in MHB liquid medium and the results were summarized in Table 9. CM166 is resistant to antibacterial agents whose resistant genes have been incorporated into the strain, but not to other antibacterial drugs whose resistant genes are not incorporated.
as §2, §5, §4

[7] = system: E. coli screening strain CM166; design: unit not given here; conditions: Table 9, MHB medium
Description: as §6

screening strain CM166 = assay: macrodroplet screening assay, zones of inhibition; conditions: soil actinomycetes in macrodroplets, DNA and biotin in medium
Experimental: as §1
Next, microorganisms from the soil samples collected as described above were encapsulated to form macrodroplets populated by a single microorganism in each bead, according to the pre-determined cfu count of the particular soil extract. In this process, an aliquot of the soil bacteria suspension was diluted in 10% glycerol to generate an inoculum of the required density. This adjusted suspension was then mixed with nutrient medium, counterselective agents (see above) and 1.4% sodium alginate and the resultant mixture processed through an Inotech Encapsulator® Research device, to produce gel-beads (called macrodroplets) by the formation of droplets of liquid from a fluid stream. The droplets solidified into gel-beads as they came into contact with a calcium chloride bath, which also contained nutrient medium and counterselective agents. After a defined hardening time the macrodroplets were washed to remove excess calcium chloride and to stop the hardening process. Smidsrod and Skjak-Braek, 1990, “Alginate as immobilization matrix for cells,” Trends Biotechnol. 8(3):71-8. Cured macrodroplets containing microorganisms were then spread in dishes from which excess fluid was removed. The macrodroplets subsequently allowed growth of the target organisms and production of secondary metabolites such as anti-microbial agents. Macrodroplets were spread evenly over the plate using a sterile spreader (5,000 particles per plate) and incubated at 28-30° C. for 7 days to allow the growth of the microorganism within, and the production of secondary metabolites.
CM166 (see section 5.3.1.b for details) was used as the test strain in this example. Two to three single colonies of CM166 were inoculated into a shake flask containing 10 ml of MHB medium with 40 μg/ml Tmp and 200 μg/ml Amp. After the cells were cultured at 35° C. for 2-3 hours, an OD reading was performed. If the OD reading was above 0.1 (equivalent to 2×10^8 cfu), the screening strain was ready for dilution. Otherwise, the strain needed to be incubated for longer time until the OD read reached >0.1. Medium for the macrodroplet assay (in 1 L Duran, add 10.5 g MHB power, 4 g agar (0.8%), and 1 g DNA) was autoclaved and cooled to ˜45° C., and ampicillin (25 mg/ml), tetracycline (10 mg/ml), daptomycin (20 mg/ml) and biotin (0.1 μg/ml) were added, together with 2.5 ml screening strain. […]

[8] = system: PrecN′-'lacZ fusion gene in CM242; assay: β-galactosidase activity in the presence of DNA damaging drugs
Experimental: (§7) The responses to DNA damaging agents of the screening strains described above were measured by analyzing the β-galactosidase activity in the presence of DNA damaging drugs. This method is described in detail in “A Short Course in Bacterial Genetics” 1992, ed. Miller, Cold Spring Harbor Press, pp. 72-74. The PsulA′-'lacZ fusion gene in CM191 was induced 15 fold compared to a non-induced control two hours after the addition of mitomycin C (0.5 μg/ml). In the case of CM242 which contains the PrecN′-'lacZ fusion gene, a more than 40-fold induction had been observed. Such induction was also drug-specific. In an experiment when phosphomycin (at 10 μg/ml) was used, there was no induction of the β-galactosidase activity.

[9] = system: PsulA′-'lacZ fusion gene in CM191; assay: as above; conditions: CM191, two hours after addition, 0.5 μg/ml
Experimental: as §7

## chrysomycin
Screening strain DR1212
  active compound selected by DR1212: active

## COC1=C(N)C(=O)c2nc(-c3nc(C(=O)O)c(C)c(-c4ccc(OC)c(OC)c4O)c3N)ccc2C1=O [Streptonigrin]
[1]
  Minimal inhibitory concentrations (MIC90) DR1212: ≦0.2
[2]
  Minimal inhibitory concentrations (MIC90) DR1234: 3.2
[3]
  Minimal inhibitory concentrations (MIC90) CM435: 0.5
[4]
  Minimal inhibitory concentrations (MIC90) CM400: 8
[5]
  Minimal inhibitory concentrations (MIC90) CM242: 3.2
[6]
  lacZ reporter gene expression (S-Gal, blue-colored rings): induced
E. coli MG1655; Table 7, MHB medium
  Minimal inhibitory concentrations (MIC90) MG1655: 3.2
E. coli MG1655; Table 9, MHB medium
  Minimal inhibitory concentrations (MIC90) MG1655: 3.2
E. coli MG1655; Table 11, MHB medium
  Minimal inhibitory concentrations (MIC90) MG1655: 3.2
E. coli MG1655; Table 13, MHB medium
  Minimal inhibitory concentrations (MIC90) MG1655: 8
E. coli MG1655; second Table 12, MHB medium
  Minimal inhibitory concentrations (MIC90) MG1655: 3.2
Screening strain DR1212
  active compound selected by DR1212: active
[7]
  Minimal inhibitory concentrations (MIC90) CM166: 1.6

## CCC(=O)Nc1c2sscc-2n(C)c1=O [aureothricin]
Screening strain CM166
  bioactive compound of actinomycete strains selected with CM166: bioactive

## COc1cccc2c1C(=O)c1c(O)c3c(c(O)c1C2=O)C[C@@](O)(C(C)=O)C[C@@H]3O[C@H]1C[C@H](N)[C@H](O)[C@H](C)O1 [Daunorubicin]
[1]
  Minimal inhibitory concentrations (MIC90) DR1212: 12.5
[2]
  Minimal inhibitory concentrations (MIC90) DR1234: >400
[3]; MHB liquid medium
  sensitivity of CM435 according to the MIC results: hypersensitive
[3]
  Minimal inhibitory concentrations (MIC90) CM435: 8
[4]
  Minimal inhibitory concentrations (MIC90) CM400: >256
[5]
  Minimal inhibitory concentrations (MIC90) CM242: 100
E. coli MG1655; Table 7, MHB medium
  Minimal inhibitory concentrations (MIC90) MG1655: 200
E. coli MG1655; Table 9, MHB medium
  Minimal inhibitory concentrations (MIC90) MG1655: 200
E. coli MG1655; Table 11, MHB medium
  Minimal inhibitory concentrations (MIC90) MG1655: 200
E. coli MG1655; Table 13, MHB medium
  Minimal inhibitory concentrations (MIC90) MG1655: >256
E. coli MG1655; second Table 12, MHB medium
  Minimal inhibitory concentrations (MIC90) MG1655: 200
Screening strain DR1212
  active compound selected by DR1212: active
[7]
  Minimal inhibitory concentrations (MIC90) CM166: >400

## C[C@@H]1O[C@@H]1P(=O)(O)O [Phosphomycin]
[3]
  Minimal inhibitory concentrations (MIC90) CM435: 64
[8]; at 10 μg/ml, strain not specified
  induction of the β-galactosidase activity: no induction
[4]
  Minimal inhibitory concentrations (MIC90) CM400: 8
E. coli MG1655; Table 13, MHB medium
  Minimal inhibitory concentrations (MIC90) MG1655: 32

## CC(=O)Nc1c2sscc-2n(C)c1=O [thiolutin]
Screening strain CM166
  bioactive compound of actinomycete strains selected with CM166: bioactive

## COC1C(O)CC(OC2CC(Oc3cc4cc5c(c(O)c4c(O)c3C)C(=O)[C@@H](OC3CC(OC4CC(OC6CC(C)(O)C(OC(C)=O)C(C)O6)C(O)C(C)O4)C(O)C(C)O3)[C@H]([C@H](OC)C(=O)[C@@H](O)[C@@H](C)O)C5)OC(C)C2OC(C)=O)OC1C (stereo partly drawn) [chromomycin]
Screening strain DR1212
  active compound selected by DR1212: active

## O=C(O)/C=C/CC[C@@H]1SC[C@@H]2NC(=O)N[C@@H]21 [lydimycin]
Screening strain CM166
  bioactive compound of actinomycete strains selected with CM166: bioactive

## CO[C@@]12[C@H](COC(N)=O)C3=C(C(=O)C(C)=C(N)C3=O)N1C[C@@H]1N[C@@H]12 [Mitomycin C]
[1]
  Minimal inhibitory concentrations (MIC90) DR1212: <0.4
[2]
  Minimal inhibitory concentrations (MIC90) DR1234: 3.2
[8]; CM242, 0.5 μg/ml
  induction of PrecN′-'lacZ fusion gene: more than 40 fold
[9]
  induction of PsulA′-'lacZ fusion gene compared to a non-induced control: 15 fold
[5]
  Minimal inhibitory concentrations (MIC90) CM242: 3.2
[6]
  lacZ reporter gene expression (S-Gal, blue-colored rings): induced
E. coli MG1655
  Minimal inhibitory concentrations (MIC90) MG1655: 0.8
[7]
  Minimal inhibitory concentrations (MIC90) CM166: 3.2

## streptavidin
Screening strain CM166
  bioactive compound of actinomycete strains selected with CM166: bioactive

## albomycin
Screening strain CM166
  bioactive compound of actinomycete strains selected with CM166: bioactive
